The test has as its system FLAP (5-lipoxygenase activating protein). The test is described as follows: In vitro binding test: displacement of [3H]-7-chloro-3-(5-((3-fluoropyridin-2-yl)methoxy)-2-methylphenyl)-3,4-dihydroquinazolin-2(1H)-one from Sf9 microsome fractions. More on the design: species or system human and mouse. Particulars: Sf9 microsome fractions expressing FLAP; 100% = radioligand binding with 10 μM sodium 3-(3-(tert-butylsulfanyl)-1-(4-chlorobenzyl)-5-isopropyl-1H-indol-2-yl)-2,2-dimethylpropanoate, 0% = DMSO; test compound concentration not given. In a few lines:
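Sf9 microsomes expressing human or mouse FLAP (2 μg/mL) preincubated with compound 10 min at room temperature, then 120 nM tritiated quinazolinone ligand added for 60 min; buffer 100 mM Tris-HCl pH 7.5 with NaCl, EDTA, DTT, glycerol, Tween20. Bound ligand filtered and counted by scintillation; 10 μM indole propanoate defines 100% inhibition, DMSO 0%.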
On the technique in general: In a radioligand displacement assay an active substance lowers the binding of a labelled ligand.
As for `Cc1cc2c(cc1N1Cc3c(cc(N4CCCC4=O)nc3C3CC3)NC1=O)OC(c1ncccc1F)CC2` (stereo not drawn) [Example 144, 5-cyclopropyl-3-(2-(3-fluoropyridin-2-yl)-6-methyl-3,4-dihydro-2H-chromen-7-yl)-7-(2-oxopyrrolidin-1-yl)-3,4-dihydropyrido[4,3-d]pyrimidin-2(1H)-one], the “inhibitory rate (%)” value worked out at 92%. As for `CC(C)(O)c1ccc2c(c1)NC(=O)N(c1cc(OCc3c(F)cccc3F)ccc1C(F)(F)F)C2` [Example 238, 3-(5-((2,6-difluorobenzyl)oxy)-2-(trifluoromethyl)phenyl)-7-(2-hydroxypropan-2-yl)-3,4-dihydroquinazolin-2(1H)-one], the figure is 84%; as for `COCCn1c(=O)n(-c2cc3c(cc2C)CCC(c2ncccc2F)O3)c(=O)c2ccccc21` (stereo not drawn) [Example 328, 3-(2-(3-fluoropyridin-2-yl)-6-methyl-3,4-dihydro-2H-chromen-7-yl)-1-(2-methoxyethyl)quinazoline-2,4(1H,3H)-dione], 111%. As for `Cc1ccc(OCc2c(F)cccc2F)cc1N1Cc2cnn(C)c2NC1=O` [Example 311, 5-(5-((2,6-difluorobenzyl)oxy)-2-methylphenyl)-1-methyl-1,4,5,7-tetrahydro-6H-pyrazolo[3,4-d]pyrimidin-6-one], the figure is 69%; as for `O=C1Nc2cc(-c3ncco3)nc(C3CC3)c2CN1c1cc2c(cc1Cl)CCC(c1ncccc1F)O2` (stereo not drawn) [Example 85, 3-(6-chloro-2-(3-fluoropyridin-2-yl)-3,4-dihydro-2H-chromen-7-yl)-5-cyclopropyl-7-(1,3-oxazol-2-yl)-3,4-dihydropyrido[4,3-d]pyrimidin-2(1H)-one], 102%; as for `Cn1c(=O)n(-c2ccc3c(c2)OC(c2c(F)cccc2F)CC3)c(=O)c2ccccc21` (stereo not drawn) [Example 329, 3-(2-(2,6-difluorophenyl)-3,4-dihydro-2H-chromen-7-yl)-1-methylquinazoline-2,4(1H,3H)-dione], 103%. The same measure for `Cc1ccc(OCc2ncccc2F)cc1N1Cc2c(Cl)cccc2N(C)C1=O` [Example 291, 5-chloro-3-(5-((3-fluoropyridin-2-yl)methoxy)-2-methylphenyl)-1-methyl-3,4-dihydroquinazolin-2(1H)-one]: 94%; for `O=C(NCc1ccccn1)c1ccc(OCc2c(F)cccc2F)cc1N1Cc2ccccc2NC1=O` [Example 192, 4-((2,6-difluorobenzyl)oxy)-2-(2-oxo-1,4-dihydroquinazolin-3(2H)-yl)-N-(pyridin-2-ylmethyl)benzamide]: 51%.

For `Cc1ccc(OCc2c(F)cccc2F)cc1N1Cc2ccc(CN)cc2NC1=O` [Example 206, 7-(aminomethyl)-3-(5-((2,6-difluorobenzyl)oxy)-2-methylphenyl)-3,4-dihydroquinazolin-2(1H)-one], the “inhibitory rate (%)” value came to 81%. The same measure for `Cc1cc2c(cc1N1Cc3c(Cl)cnc(N4CCCC4)c3NC1=O)OC(c1ncccc1F)CC2` (stereo not drawn) [Example 158, 5-chloro-3-(2-(3-fluoropyridin-2-yl)-6-methyl-3,4-dihydro-2H-chromen-7-yl)-8-(pyrrolidin-1-yl)-3,4-dihydropyrido[3,4-d]pyrimidin-2(1H)-one]: 99%; for `Cn1cc(-c2ncc(Cl)c3c2NC(=O)N(c2cc4c(cc2Cl)CCC(c2ncccc2F)O4)C3)cn1` (stereo not drawn) [Example 102, 5-chloro-3-(6-chloro-2-(3-fluoropyridin-2-yl)-3,4-dihydro-2H-chromen-7-yl)-8-(1-methyl-1H-pyrazol-4-yl)-3,4-dihydropyrido[3,4-d]pyrimidin-2(1H)-one]: 101%; for `Cc1cc2c(cc1N1Cc3ncccc3NC1=O)OC(c1ncccc1F)CC2` (stereo not drawn) [Example 45, 3-(2-(3-fluoropyridin-2-yl)-6-methyl-3,4-dihydro-2H-chromen-7-yl)-3,4-dihydropyrido[3,2-d]pyrimidin-2(1H)-one]: 99%.

As to `O=C1Nc2cc(-c3cn[nH]c3)nc(C3CC3)c2CN1c1cc2c(cc1Cl)CCC(c1ncccc1F)O2` (stereo not drawn) [Example 116, 3-(6-chloro-2-(3-fluoropyridin-2-yl)-3,4-dihydro-2H-chromen-7-yl)-5-cyclopropyl-7-(1H-pyrazol-4-yl)-3,4-dihydropyrido[4,3-d]pyrimidin-2(1H)-one], the “inhibitory rate (%)” value is given as 102%.

As to `CC(C)(O)c1ccc2c(c1)NC(=O)N(c1cc(OCc3c(F)cccc3F)ccc1CCc1ccccc1)C2` [Example 260, 3-(5-((2,6-difluorobenzyl)oxy)-2-(2-phenylethyl)phenyl)-7-(2-hydroxypropan-2-yl)-3,4-dihydroquinazolin-2(1H)-one], the “inhibitory rate (%)” value came out at 106%. As for `Cc1ccc(OCc2ncccc2F)cc1-n1c(=O)[nH]c2cc(C(=O)NC3CC3)ccc2c1=O` [Example 363, N-cyclopropyl-3-(5-((3-fluoropyridin-2-yl)methoxy)-2-methylphenyl)-2,4-dioxo-1,2,3,4-tetrahydroquinazoline-7-carboxamide], the figure is 97%; as for `Cc1ccc(OCc2ncccc2F)cc1N1Cc2ccc(C(=O)N3CCCC(O)C3)cc2NC1=O` (stereo not drawn) [Example 227, 3-(5-((3-fluoropyridin-2-yl)methoxy)-2-methylphenyl)-7-((3-hydroxypiperidin-1-yl)carbonyl)-3,4-dihydroquinazolin-2(1H)-one], 90%. For `Cc1ccc(OCc2ccccc2Cl)cc1N1Cc2ccccc2NC1=O` [Example 173, 3-(5-((2-chlorobenzyl)oxy)-2-methylphenyl)-3,4-dihydroquinazolin-2(1H)-one], the “inhibitory rate (%)” value was 70%. The same measure for `Cc1cc2c(cc1N1Cc3cn(CC(F)(F)F)c(=O)cc3NC1=O)OC(c1ncccc1F)CC2` (stereo not drawn) [Example 38, 3-(2-(3-fluoropyridin-2-yl)-6-methyl-3,4-dihydro-2H-chromen-7-yl)-6-(2,2,2-trifluoroethyl)-4,6-dihydropyrido[4,3-d]pyrimidine-2,7(1H,3H)-dione]: 104%; for `COC(=O)c1ccc2c(c1)NC(=O)N(c1cc(OCc3c(F)cccc3F)ccc1C)C2` [Example 171, methyl 3-(5-((2,6-difluorobenzyl)oxy)-2-methylphenyl)-2-oxo-1,2,3,4-tetrahydroquinazoline-7-carboxylate]: 99%.

As for `Cc1ccc(OCc2ncccc2F)cc1-n1c(=O)[nH]c2cccc(OCC3CC3)c2c1=O` [Example 367, 5-(cyclopropylmethoxy)-3-(5-((3-fluoropyridin-2-yl)methoxy)-2-methylphenyl)quinazoline-2,4(1H,3H)-dione], the “inhibitory rate (%)” value worked out at 100%. The same measure for `CC(C)(O)CNC(=O)c1cc2c(c(C3CC3)n1)CN(c1cc3c(cc1Cl)CCC(c1ncccc1F)O3)C(=O)N2` (stereo not drawn) [Example 114, 3-(6-chloro-2-(3-fluoropyridin-2-yl)-3,4-dihydro-2H-chromen-7-yl)-5-cyclopropyl-N-(2-hydroxy-2-methylpropyl)-2-oxo-1,2,3,4-tetrahydropyrido[4,3-d]pyrimidine-7-carboxamide]: 106%. As for `Cc1ccc(OCc2ncccc2F)cc1N1Cc2nn(C)cc2NC1=O` [Example 250, 6-(5-((3-fluoropyridin-2-yl)methoxy)-2-methylphenyl)-2-methyl-2,4,6,7-tetrahydro-5H-pyrazolo[4,3-d]pyrimidin-5-one], the figure is 70%; as for `CCc1ccc(OCc2c(F)cccc2F)cc1N1Cc2ccc(CO)cc2NC1=O` [Example 179, 3-(5-((2,6-difluorobenzyl)oxy)-2-ethylphenyl)-7-(hydroxymethyl)-3,4-dihydroquinazolin-2(1H)-one], 91%; as for `O=C(c1cc2c(c(C3CC3)n1)CN(c1cc3c(cc1Cl)CCC(c1ncccc1F)O3)C(=O)N2)N1CCOCC1` (stereo not drawn) [Example 74, 3-(6-chloro-2-(3-fluoropyridin-2-yl)-3,4-dihydro-2H-chromen-7-yl)-5-cyclopropyl-7-(morpholin-4-ylcarbonyl)-3,4-dihydropyrido[4,3-d]pyrimidin-2(1H)-one], 104%. As for `Cc1ccc(OCc2ncccc2F)cc1N1Cc2nn(CC3CC3)cc2NC1=O` [Example 276, 2-(cyclopropylmethyl)-6-(5-((3-fluoropyridin-2-yl)methoxy)-2-methylphenyl)-2,4,6,7-tetrahydro-5H-pyrazolo[4,3-d]pyrimidin-5-one], the figure is 101%; as for `Cc1ccc(OCc2c(F)cccc2F)cc1N1Cc2ccc(CO)cc2NC1=O` [Example 181, 3-(5-((2,6-difluorobenzyl)oxy)-2-methylphenyl)-7-(hydroxymethyl)-3,4-dihydroquinazolin-2(1H)-one], 91%; as for `O=C1Nc2cccc(Cl)c2CN1c1cc(OCc2ncccc2F)ccc1Br` [Example 277, 3-(2-bromo-5-((3-fluoropyridin-2-yl)methoxy)phenyl)-5-chloro-3,4-dihydroquinazolin-2(1H)-one], 99%.

With `O=c1[nH]c2cnccc2c(=O)n1-c1cccc(OCc2c(F)cccc2F)c1` [Example 330, 3-(3-((2,6-difluorobenzyl)oxy)phenyl)pyrido[3,4-d]pyrimidine-2,4(1H,3H)-dione], the “inhibitory rate (%)” value came out at 72%. As for `Cc1ccc(OCc2ccccc2F)cc1N1Cc2ccccc2NC1=O` [Example 172, 3-(5-((2-fluorobenzyl)oxy)-2-methylphenyl)-3,4-dihydroquinazolin-2(1H)-one], the figure is 80%; as for `Cc1ccc(OCc2ncccc2F)cc1N1Cc2c(Br)cncc2NC1=O` [Example 315, 5-bromo-3-(5-((3-fluoropyridin-2-yl)methoxy)-2-methylphenyl)-3,4-dihydropyrido[3,4-d]pyrimidin-2(1H)-one], 103%.
